Laboratory results reported in ChEMBL document CHEMBL5108062 (J Med Chem, 2022).

Target: Dipeptidyl peptidase 4 (Homo sapiens, UniProt P27487)
Experiment: Inhibition of human recombinant DPP4 using H-Gly-Pro-AMC as substrate incubated for 30 mins by fluorescence based microplate reader assay

Sequence of Dipeptidyl peptidase 4 (P27487 whole entry): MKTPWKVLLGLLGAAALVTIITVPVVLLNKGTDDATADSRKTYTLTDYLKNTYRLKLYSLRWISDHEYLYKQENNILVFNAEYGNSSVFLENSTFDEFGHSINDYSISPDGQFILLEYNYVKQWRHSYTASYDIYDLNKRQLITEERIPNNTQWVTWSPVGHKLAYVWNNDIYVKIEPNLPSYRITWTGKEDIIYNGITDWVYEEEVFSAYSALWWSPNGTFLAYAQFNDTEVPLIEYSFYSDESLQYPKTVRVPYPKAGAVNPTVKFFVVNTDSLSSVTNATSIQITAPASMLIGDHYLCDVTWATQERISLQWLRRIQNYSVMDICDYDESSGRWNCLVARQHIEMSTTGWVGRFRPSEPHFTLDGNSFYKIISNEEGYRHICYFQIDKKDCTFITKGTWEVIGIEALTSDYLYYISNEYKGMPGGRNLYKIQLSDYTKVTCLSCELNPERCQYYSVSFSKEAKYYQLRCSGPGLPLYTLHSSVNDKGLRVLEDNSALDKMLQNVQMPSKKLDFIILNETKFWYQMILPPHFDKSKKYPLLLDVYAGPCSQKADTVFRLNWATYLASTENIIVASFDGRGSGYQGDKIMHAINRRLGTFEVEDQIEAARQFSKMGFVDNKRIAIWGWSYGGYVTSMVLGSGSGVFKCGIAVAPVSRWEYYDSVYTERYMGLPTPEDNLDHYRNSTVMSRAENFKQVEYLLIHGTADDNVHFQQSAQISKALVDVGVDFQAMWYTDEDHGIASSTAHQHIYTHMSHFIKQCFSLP

`COc1cc(S(N)(=O)=O)ccc1OCCC(N=[N+]=[N-])C1COc2ccccc2O1` (stereo unspecified) gave an IC50 of 327 µM.
